In US10883087B2, “Uricase sequences and methods of treatment” (MedImmune, LLC, priority 2015, dated 2021):

Columns and labels:
Assay in all cases: Substrate depletion assay (UA)
[1] = molecular target: T1, Arthrobacter globiformis uricase, wt, SEQ ID NO: 27 (amino terminal His tag) (Arthrobacter globiformis, UniProt D0VWQ1); assay type: biochemical
T1 sequence (D0VWQ1 1-302): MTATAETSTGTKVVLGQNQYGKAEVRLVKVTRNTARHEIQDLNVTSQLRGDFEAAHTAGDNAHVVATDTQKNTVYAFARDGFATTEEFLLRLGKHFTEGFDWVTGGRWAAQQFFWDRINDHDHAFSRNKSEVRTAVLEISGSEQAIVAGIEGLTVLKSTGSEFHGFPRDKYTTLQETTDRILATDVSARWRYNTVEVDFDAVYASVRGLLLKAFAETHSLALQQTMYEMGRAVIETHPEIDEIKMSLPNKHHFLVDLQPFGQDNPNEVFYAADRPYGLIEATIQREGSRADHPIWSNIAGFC
Description: (§1) An initial screening paradigm was used to identify candidates for further optimization. The 8 uricase sequences described in Example 1 were cloned with an amino terminal His tag and expressed in E. coli. Each uricase construct was evaluated for expression level and in particular, soluble expression. Uricase expressing E. coli were lysed and soluble material was separated from insoluble (pellet) material. The lysates were separated by SDS-PAGE and the proteins were visualized by Coomassie blue staining. […] The pig-baboon chimera appears to express almost entirely in the pellet (P) (insoluble) fraction (FIG. 1, Lane 9). Cytosolic soluble (S) expression was considered a favorable property. […] Protein yield was determined by measuring the absorbance at 280 nm. […]
(§2) Five uricases (SEQ ID NOs: 27, 28, 29, 32, and 34) were evaluated for neutral pH solubility characteristics and activity in terms of product formation (H2O2) at pH 9.0 and 7.4. […] The appearance of hydrogen peroxide can be measured by an increase in absorbance at 540 nm. […]
(§3) Substrate depletion (UA) is another common method for assessing uricase activity. […] The Molecular Devices reader temperature was set to the 30° C. Absorbance measurements at 292 nm were captured every 20 seconds for a period of 10 minutes. The rate of UA degradation was calculated by SoftMax Pro software. Vmax and Km were calculated for these uricases (see Table 5 below). […]

[2] = system: Consensus uricase, SEQ ID NO: 34 (amino terminal His tag); assay type: biochemical; details: PB, pH 7.4, typically 30° C.; UA 23.8-400 μM; 292 nm
From the text: After this process, the following 7 candidate sequences were chosen for further investigation: Arthrobacter globiformis uricase (SEQ ID NO: 27), Deinococcus geothermalis uricase (SEQ ID NO: 28), Deinococcus radiodurans uricase (SEQ ID NO: 29), Granulicella tundricola uricase (SEQ ID NO: 30), Solibacter usitatus uricase (SEQ ID NO: 31), Terriglobus saanensis uricase (SEQ ID NO: 32) and Kyrpidia tusciae uricase (SEQ ID NO: 33). Additionally, as an 8th sequence, a consensus uricase sequence was also devised from the alignment of many uricase sequences. The consensus sequence is represented by SEQ ID NO: 34.
An initial screening paradigm was used to identify candidates for further optimization. […] Each uricase construct was evaluated for expression level and in particular, soluble expression. […] Protein yield was determined by measuring the absorbance at 280 nm. […]
as §2
Substrate depletion (UA) is another common method for assessing uricase activity. […] The Molecular Devices reader temperature was set to the 30° C. Absorbance measurements at 292 nm were captured every 20 seconds for a period of 10 minutes. […]

[3] = molecular target: Deinococcus geothermalis uricase, SEQ ID NO: 28 (amino terminal His tag) (Deinococcus geothermalis, UniProt Q1J399); assay type: biochemical
Description: (§4) Substrate depletion (UA) is another common method for assessing uricase activity. In the substrate depletion assay, uricase, UA, and phosphate buffer were incubated for 1 hour at the stated temperature (typically 30° C.). […] In some assays 1 mM DTT was added to the assay. The Molecular Devices reader temperature was set to the 30° C. Absorbance measurements at 292 nm were captured every 20 seconds for a period of 10 minutes. The rate of UA degradation was calculated by SoftMax Pro software. Vmax and Km were calculated for these uricases (see Table 5 below).

[4] = system: Krystexxa (pegloticase), PEGylated chimeric pig/baboon uricase; assay type: biochemical, pig and baboon (chimera); details: PB, pH 7.4, typically 30° C.; UA 23.8-400 μM; 292 nm
Description: Five uricases (SEQ ID NOs: 27, 28, 29, 32, and 34) were evaluated for neutral pH solubility characteristics and activity in terms of product formation (H2O2) at pH 9.0 and 7.4. In the product formation assay, allantoin formation is proportional to H2O2 formation, which is linked to colorimetric horseradish peroxidase-catalyzed, colorimetric reaction. The appearance of hydrogen peroxide can be measured by an increase in absorbance at 540 nm. Product formation assays were proportional to substrate depletion assays in terms of uricase activity. […] The substrate depletion assays were much better for assessing kinetic parameters like Vmax and Km.
Substrate depletion (UA) is another common method for assessing uricase activity. In the substrate depletion assay, uricase, UA, and phosphate buffer were incubated for 1 hour at the stated temperature (typically 30° C.). Uricase was then diluted to 1 μg/mL and combined with a curve of UA (400 μM diluted down 1:1.6 to 23.8 μM) in 0.1M phosphate buffer (PB), pH 7.4. In some assays 1 mM DTT was added to the assay. The Molecular Devices reader temperature was set to the 30° C. Absorbance measurements at 292 nm were captured every 20 seconds for a period of 10 minutes. The rate of UA degradation was calculated by SoftMax Pro software. Vmax and Km were calculated for these uricases (see Table 5 below). […]

[5] = system: O=c1[nH]c(=O)c2[nH]c(=O)[nH]c2[nH]1; assay type: biochemical, Deinococcus geothermalis; details: other: PB, pH 7.4, typically 30° C., UA 23.8-400 μM, 292 nm
Description: as §4

[6] = substrate: O=c1[nH]c(=O)c2[nH]c(=O)[nH]c2[nH]1; assay type: biochemical, Deinococcus radiodurans; details: other: PB, pH 7.4, typically 30° C., UA 23.8-400 μM, 292 nm
Description: as §1, §2, §3

[7] = substrate: O=c1[nH]c(=O)c2[nH]c(=O)[nH]c2[nH]1; assay type: biochemical, Terriglobus saanensis; details: other: PB, pH 7.4, typically 30° C., UA 23.8-400 μM, 292 nm
Description: as §1, §2, §3

[8] = substrate: O=c1[nH]c(=O)c2[nH]c(=O)[nH]c2[nH]1; assay type: biochemical, Arthrobacter globiformis
Description: as §1, §2, §3

O=c1[nH]c(=O)c2[nH]c(=O)[nH]c2[nH]1 [UA, uric acid]
better kcat/Km relative to Krystexxa ([1]; ratio to Krystexxa): ~2 fold | better Km relative to Krystexxa ([1]; ratio to Krystexxa (55.7 versus 116.3)): 2 fold | Km [2]: 31.8 µM | Vmax ([3]; compared with Krystexxa): 10.8 | better kcat/Km relative to Krystexxa ([3]; ratio to Krystexxa): ~2 fold | improved Vmax relative to Krystexxa ([3]; ratio to Krystexxa (10.8 versus 5.7)): 2 fold | Km [4]: 116 µM | Vmax [4]: 5.7

Deinococcus geothermalis uricase, SEQ ID NO: 28 (amino terminal His tag) (Deinococcus geothermalis DSM 11300)
Km [5]: 55.7 µM

B1: Deinococcus radiodurans uricase, SEQ ID NO: 29 (amino terminal His tag) (Deinococcus radiodurans R1 = ATCC 13939 = DSM 20539) (protein)
chain: MMTGTQQPGTQPKVKVRLGENNYGKAEVQLMKIKRGTPRHELREAKVRVAMYGDFGAAHSEGDNTDLVATDTVRNTVYGLAKEGFESSIEEFGKELLTHFVKVGPRVTGGFAEFTEHLWERVQTPAQPQGHDHAFVRQMPKRTARVETQDGRRFTVTSGIEELYVLKTTESGWENYLLDERFTTLPETHDRVMATFVTAKWEYAVESCDYDAVWERVYRQIQHTFTDHYSPSLQRTLYLMGEAVLSVCPEISRIWFQMPNKHHLVYNLGRFGLENNNEILHVDPEPYGLMEAWVERAE
Km [6]: 83.1 µM

B2: Terriglobus saanensis uricase, SEQ ID NO: 32 (amino terminal His tag) (Terriglobus saanensis SP1PR4) (protein)
chain: MAKLIDSRYGKARVRVMKLDRSQPQHQLLEWTVRVLLEGDFETAHTVGDNSNILPTDTMKNTVYSRAKESKAETPEEFAIELAEFLLGRNPQVHTVEVKIETAMWKRLVVDGKPHGSSFMRGSDELGTVLHHATRETKTMVCGVENMVILKSQNSSFEGYIQDDLTTLKPTADRLFATAMTADWDYTDGGSAFAARREAIREAMLKAFAEHDSKSVQQTLYAMAEAAMAAVPAVNRVHMVMPNKHCLLVDLKHFGQENNNEIFVPTEDPHGYIEATVVRE
Km [7]: 76.2 µM

B3: Arthrobacter globiformis uricase, wt, SEQ ID NO: 27 (amino terminal His tag) (Arthrobacter globiformis) (protein)
chain: MTATAETSTGTKVVLGQNQYGKAEVRLVKVTRNTARHEIQDLNVTSQLRGDFEAAHTAGDNAHVVATDTQKNTVYAFARDGFATTEEFLLRLGKHFTEGFDWVTGGRWAAQQFFWDRINDHDHAFSRNKSEVRTAVLEISGSEQAIVAGIEGLTVLKSTGSEFHGFPRDKYTTLQETTDRILATDVSARWRYNTVEVDFDAVYASVRGLLLKAFAETHSLALQQTMYEMGRAVIETHPEIDEIKMSLPNKHHFLVDLQPFGQDNPNEVFYAADRPYGLIEATIQREGSRADHPIWSNIAGFC
Km ([8]; other: PB, pH 7.4, typically 30° C., UA 23.8-400 μM, 292 nm, pH 7.4): 110 µM | Km ([8]; other: restated in text, compared with Krystexxa, 30.0 °C): 55.7 µM
